From ChEMBL document CHEMBL4011601, “Synthesis and molecular docking studies of new furochromone derivatives as p38α MAPK inhibitors targeting human breast cancer MCF-7 cells” (Bioorg Med Chem, 2017) come the findings set out here.

The target of assay [1] is MAP kinase p38 (Homo sapiens, UniProt O15264+Q15759+Q16539+P53778). Briefly: Inhibition of p38 MAPK (unknown origin) using ATF2 as substrate measured after 15 by ELISA.
Assay [2] relates to MCF7. Briefly: Antiproliferative activity against human MCF7 cells after 3 days by MTT assay. The format is functional, cell-based. As to conditions: MCF7, 72 h. In general terms: Formazan colour is commonly taken as a measure of viable cells.
Assay [3] concerns MCF7. Briefly: Potency index, ratio of Doxorubicin IC50 to compound IC50 against human MCF7 cells. The class given is functional.
Assay [4] has as its system MCF7. Briefly: Induction of apoptosis in human MCF7 cells assessed as viable cells after 24 hrs by Annexin-V/propidium iodide staining based FACS analysis (reference value: 92.7%). The class given is functional.
The test system of assay [5] is MCF7. Briefly: Induction of apoptosis in human MCF7 cells assessed as late apoptotic cells after 24 hrs by Annexin-V/propidium iodide staining based FACS analysis (reference value: 4.3%). The class given is functional. In general terms: In flow cytometry, cells or beads pass a laser one at a time.
Assay [6] relates to MCF7. Briefly: Induction of apoptosis in human MCF7 cells assessed as early apoptotic cells after 24 hrs by Annexin-V/propidium iodide staining based FACS analysis (reference value: 2.7%). The class given is functional.
Assay [7] concerns MCF7. Briefly: Induction of apoptosis in human MCF7 cells assessed as increase in caspase3 level at 0.007 uM after 24 hrs by ELISA. The class given is functional. In general terms: In an ELISA, binding on a coated surface is turned into a signal by an enzyme label.
The subject of assay [8] is MCF7. Kind of assay: Induction of apoptosis in human MCF7 cells assessed as necrotic cells after 24 hrs by Annexin-V/propidium iodide staining based FACS analysis (reference value: 0.3%). The class given is functional.
The test system of assay [9] is MCF7. Briefly: Cell cycle arrest in human MCF7 cells assessed as accumulation at G2 phase after 24 hrs by propidium iodide staining-based flow cytometric method (reference value: 6.4%). The format is functional.
Assay [10] has as its system MCF7. Kind of assay: Cell cycle arrest in human MCF7 cells assessed as accumulation at S phase after 24 hrs by propidium iodide staining-based flow cytometric method (reference value: 25.1%). The format is functional.
Assay [11] relates to MCF7. Kind of assay: Induction of apoptosis in human MCF7 cells assessed as increase in caspase9 level at 0.007 uM after 24 hrs by ELISA. The format is functional.
Assay [12] has as its system MCF7. Briefly: Cell cycle arrest in human MCF7 cells assessed as accumulation at G1 phase after 24 hrs by propidium iodide staining-based flow cytometric method (reference value: 67.2%). The class given is functional.

The term IC50 denotes the concentration that inhibits the measured activity by half. Low readings indicate inhibition by little substance, high ones a need for much substance. As for `COc1ccc(-c2cc(-c3c(C)oc4c(OC)c5occc5c(OC)c4c3=O)[nH]c(=N)c2C#N)cc1OC`, the IC50 in [1] was 310 nM; in [2], 10 nM.

Regarding `COc1c2occc2c(OC)c2c(=O)c(C3=NN(c4ccccc4)C(c4ccc(F)cc4)C3)c(C)oc12` (centres undefined), the IC50 was 1090 nM in assay [1] and 40 nM in [2].

For `COc1ccc(-c2cc(-c3c(C)oc4c(OC)c5occc5c(OC)c4c3=O)nc(=S)[nH]2)cc1OC`, the IC50 in assay [1] is 1390 nM; in assay [2], 50 nM.

Turning to `COc1ccc(-c2cc(-c3c(C)oc4cc5occc5c(OC)c4c3=O)[nH]c(=N)c2C#N)cc1OC`, the IC50 in assay [1] was 720 nM; in assay [2] it was 50 nM.

In the case of `COc1ccc(-c2cc(-c3c(C)oc4c(OC)c5occc5c(OC)c4c3=O)nc(=O)[nH]2)cc1OC`, in assay [2], it took 80 nM to reach half-maximal inhibition (IC50). This lies in the double-digit nanomolar range.

In [2], `COc1c2occc2c(OC)c2c(=O)c(C3=NN(C(C)=O)C(c4ccc(F)cc4)C3)c(C)oc12` (centres undefined) showed a half-maximal inhibitory concentration (IC50) of 150 nM.

Compound `COc1c2occc2c(OC)c2c(=O)c(C3=CC(c4ccc(F)cc4)=C4C(N)=NC=NC4N3)c(C)oc12` (centres undefined) came in with an IC50 in assay [2] of 170 nM. For the same compound, the “Ratio IC50” value in [3] came out at 3.6.

`COc1ccc(-c2cc(-c3c(C)oc4cc5occc5c(OC)c4c3=O)[nH]c(=O)c2C#N)cc1OC`: in [2], the 50% inhibitory concentration (IC50) turned out to be 140 nM.

With `COc1c2occc2c(OC)c2c(=O)c(C3=CC(c4ccc(F)cc4)NO3)c(C)oc12` (centres undefined), the results for the IC50 in [1] and in [2] were 860 nM and 40 nM, respectively.

For `COc1c2occc2c(OC)c2c(=O)c(-c3cc(-c4ccc(F)cc4)c(C#N)c(=N)[nH]3)c(C)oc12`, the IC50 stood at 630 nM in assay [1] and 20 nM in assay [2].

Regarding `COc1c2occc2c(OC)c2c(=O)c(-c3cc(-c4ccc(F)cc4)[nH]c(=S)n3)c(C)oc12`, the IC50 in assay [1] amounted to 380 nM; in [2] it was 20 nM.

Turning to `COc1c2ccoc2cc2oc(C)c(-c3cc(-c4ccc(F)cc4)c(C#N)c(=N)[nH]3)c(=O)c12`, the IC50 stood at 190 nM in assay [1] and 40 nM in assay [2].

In assay [2], `COc1c2occc2c(OC)c2c(=O)c(-c3cc(-c4ccc(F)cc4)c(C#N)c(=O)[nH]3)c(C)oc12` displayed an IC50 of 100 nM. For the same compound, the “Ratio IC50” value in [3] is listed as 6.

`COc1ccc(C2CC(c3c(C)oc4c(OC)c5occc5c(OC)c4c3=O)=NN2C(C)=O)cc1OC` (centres undefined): the Activity in assay [4] was 64.1%; in [5], 15.2%; in [6], 17.4%; in assay [7] it was 446.6 ng/mL; in assay [8] it was 3.3%; in assay [9], 21.2%. Besides, the Activity worked out at 24.3% in [10], 16.39 ng/mL in assay [11] and 31.2% in [12]. Besides, the IC50 in assay [1] is 670 nM; in assay [2] it was 7 nM.

`COc1c2occc2c(OC)c2c(=O)c(-c3cc(-c4ccc(F)cc4)[nH]c(=O)n3)c(C)oc12`: the midpoint of inhibition in assay [2], the IC50, lay at 80 nM.

With `COc1c2ccoc2cc2oc(C)c(-c3cc(-c4ccc(F)cc4)c(C#N)c(=O)[nH]3)c(=O)c12`, the IC50 was 230 nM in [1] and 30 nM in assay [2].

For the compound `COc1ccc(C2C=C(c3c(C)oc4c(OC)c5occc5c(OC)c4c3=O)ON2)cc1OC` (centres undefined), the IC50 came out at 1090 nM in [1] and 50 nM in assay [2].
